Test results taken from the supplement of paper PMC4862054.

What was measured:
Conditions in all cases: incubation time: 72 h
[1] = tested on: DU-4475; experiment: normalised viability (% of control), CellTiter-Blue; higher = more viable cells (about 100 = DMSO control)
Description: (§1)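 DSRT, CellTiter-Blue viability, 72 h incubation. Signal is normalised to DMSO and benzethonium chloride controls. Value is the normalised response at dose 9.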

[2] = tested on: CAL-51; experiment: as above
Description: as §1

[3] = tested on: CAL-148; experiment: as above
Description: as §1

[4] = tested on: HDQ-P1; experiment: as above
Description: as §1

[5] = tested on: CAL-85-1; experiment: as above
Description: as §1

[6] = tested on: DU-4475; experiment: as above; remark: listed apart in the source
Description: (§2)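 DSRT, CellTiter-Blue viability, 72 h incubation. Signal is normalised to DMSO and benzethonium chloride controls. Value is the normalised response at dose 6.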

[7] = tested on: MDA-MB-453; experiment: as above
Description: as §2

[8] = tested on: CAL-51; experiment: as above; remark: listed apart in the source
Description: as §2

[9] = tested on: CAL-148; experiment: as above; remark: listed apart in the source
Description: as §2

[10] = tested on: HDQ-P1; experiment: as above; remark: listed apart in the source
Description: as §2

[11] = tested on: CAL-85-1; experiment: as above; remark: listed apart in the source
Description: as §2

[12] = tested on: CAL-120; experiment: normalised viability (% of control), CellTiter-Blue; higher = more viable cells (about 100 = DMSO control)
Summary of the method: (§3)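 Normalised viability is given for a single listed concentration of the series. In 384-well plates, breast cancer cell lines were incubated 72 h with compound, then read with CellTiter-Blue (2 h, 37 °C) at 560/590 nm. Per-plate scaling set vehicle to 100 and a positive kill control to 0, with Z'-factor quality control.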

[13] = tested on: DU-4475; experiment: as above; remark: listed apart in the source
Summary of the method: as §3

[14] = tested on: HCC1937; experiment: as above
Summary of the method: as §3

[15] = tested on: MDA-MB-453; experiment: as above; remark: listed apart in the source
Summary of the method: as §3

[16] = tested on: BT-549; experiment: as above
Summary of the method: as §3

[17] = tested on: SK-BR-3; experiment: as above
Summary of the method: as §3

[18] = tested on: HCC1599; experiment: as above
Summary of the method: as §3

[19] = tested on: MFM-223; experiment: as above
Summary of the method: as §3

[20] = tested on: CAL-51; experiment: as above; remark: listed apart in the source
Summary of the method: as §3

[21] = tested on: MDA-MB-231; experiment: as above
Summary of the method: as §3

[22] = tested on: HCC1143; experiment: as above
Summary of the method: as §3

[23] = tested on: CAL-148; experiment: as above; remark: listed apart in the source
Summary of the method: as §3

[24] = tested on: Hs578T; experiment: as above
Summary of the method: as §3

[25] = tested on: BT-474; experiment: as above
Summary of the method: as §3

[26] = tested on: HDQ-P1; experiment: as above; remark: listed apart in the source
Summary of the method: as §3

[27] = tested on: MDA-MB-468; experiment: as above
Summary of the method: as §3

[28] = tested on: MDA-MB-436; experiment: as above
Summary of the method: as §3

[29] = tested on: CAL-85-1; experiment: as above; remark: listed apart in the source
Summary of the method: as §3

[30] = tested on: MFM-223; experiment: normalised viability (% of control), CellTiter-Blue; higher = more viable cells (100 = DMSO, 0 = benzethonium chloride kill control)
Description: (§4)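 DSRT, CellTiter-Blue viability, 72 h incubation. Signal is normalised to DMSO and benzethonium chloride controls. Value is the normalised response at dose 1.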

[31] = tested on: CAL-51; experiment: as above
Description: as §4

[32] = tested on: CAL-148; experiment: as above
Description: as §4

SMILES: COc1ccc(-c2ccc3c(N4CCOC[C@@H]4C)nc(N4CCOC[C@@H]4C)nc3n2)cc1CO [AZD8055]
- normalised viability ([1]; 10000 nM): 8.6%
- normalised viability ([2]; 10000 nM): 6.13%
- normalised viability ([3]; 10000 nM): 3.64%
- normalised viability ([4]; 10000 nM): 22.7%
- normalised viability ([5]; 10000 nM): 18.8%
- normalised viability ([6]; 300 nM): 29.8%
- normalised viability ([7]; 300 nM): 15.7%
- normalised viability ([8]; 300 nM): 16.9%
- normalised viability ([9]; 300 nM): 10.4%
- normalised viability ([10]; 300 nM): 26.9%
- normalised viability ([11]; 300 nM): 28.8%
- normalised viability ([12]; 10000 nM): 9.25%
- normalised viability ([13]; 100 nM): 58.6%
- normalised viability ([14]; 10000 nM): 40.3%
- normalised viability ([15]; 100 nM): 21.1%
- normalised viability ([16]; 10000 nM): 14.4%
- normalised viability ([17]; 10000 nM): 10.4%
- normalised viability ([18]; 10000 nM): 43.4%
- normalised viability ([19]; 10000 nM): 14.6%
- normalised viability ([20]; 100 nM): 27.3%
- normalised viability ([21]; 10000 nM): 22.7%
- normalised viability ([22]; 10000 nM): 28.4%
- normalised viability ([23]; 100 nM): 30.4%
- normalised viability ([24]; 10000 nM): 17.6%
- normalised viability ([25]; 10000 nM): 16.9%
- normalised viability ([26]; 100 nM): 45.6%
- normalised viability ([27]; 10000 nM): 21.4%
- normalised viability ([28]; 10000 nM): 40.1%
- normalised viability ([29]; 100 nM): 46.3%
- normalised viability ([30]; 1 nM): 93%
- normalised viability ([31]; 1 nM): 94%
- normalised viability ([32]; 1 nM): 94.6%

SMILES: C[C@]12CC[C@H](O)CC1=CC[C@@H]1[C@@H]2CC[C@]2(C)C(c3cccnc3)=CC[C@@H]12 [Abiraterone]
- normalised viability ([1]; 5000 nM): 93.3%
- normalised viability ([2]; 5000 nM): 92%
- normalised viability ([3]; 5000 nM): 92.1%
- normalised viability ([4]; 5000 nM): 113%
- normalised viability ([5]; 5000 nM): 82.1%
- normalised viability ([6]; 150 nM): 92.2%
- normalised viability ([7]; 150 nM): 105%
- normalised viability ([8]; 150 nM): 102%
- normalised viability ([9]; 150 nM): 93.8%
- normalised viability ([10]; 150 nM): 79.2%
- normalised viability ([11]; 150 nM): 93.9%
- normalised viability ([12]; 5000 nM): 92.1%
- normalised viability ([13]; 50 nM): 90.2%
- normalised viability ([14]; 5000 nM): 101%
- normalised viability ([15]; 50 nM): 102%
- normalised viability ([16]; 5000 nM): 119%
- normalised viability ([17]; 5000 nM): 93.5%
- normalised viability ([18]; 5000 nM): 120%
- normalised viability ([19]; 5000 nM): 87.8%
- normalised viability ([20]; 50 nM): 104%
- normalised viability ([21]; 5000 nM): 131%
- normalised viability ([22]; 5000 nM): 83%
- normalised viability ([23]; 50 nM): 90.7%
- normalised viability ([24]; 5000 nM): 110%
- normalised viability ([25]; 5000 nM): 98.8%
- normalised viability ([26]; 50 nM): 110%
- normalised viability ([27]; 5000 nM): 111%
- normalised viability ([28]; 5000 nM): 107%
- normalised viability ([29]; 50 nM): 96.4%
- normalised viability ([30]; 0.5 nM): 90.2%
- normalised viability ([31]; 0.5 nM): 97.6%
- normalised viability ([32]; 0.5 nM): 103%

SMILES: CN(C)CCN1C(=O)c2cccc3cc(N)cc(c23)C1=O [Amonafide]
- normalised viability ([1]; 10000 nM): 1.19%
- normalised viability ([2]; 10000 nM): 6.12%
- normalised viability ([3]; 10000 nM): 8.2%
- normalised viability ([4]; 10000 nM): 45.5%
- normalised viability ([5]; 10000 nM): 27.6%
- normalised viability ([6]; 300 nM): 92.3%
- normalised viability ([7]; 300 nM): 92.5%
- normalised viability ([8]; 300 nM): 109%
- normalised viability ([9]; 300 nM): 89.8%
- normalised viability ([10]; 300 nM): 67.5%
- normalised viability ([11]; 300 nM): 91.7%
- normalised viability ([12]; 10000 nM): 24.3%
- normalised viability ([13]; 100 nM): 84.6%
- normalised viability ([14]; 10000 nM): 29.5%
- normalised viability ([15]; 100 nM): 81%
- normalised viability ([16]; 10000 nM): 47.9%
- normalised viability ([17]; 10000 nM): 20.8%
- normalised viability ([18]; 10000 nM): 47.5%
- normalised viability ([19]; 10000 nM): 31.6%
- normalised viability ([20]; 100 nM): 104%
- normalised viability ([21]; 10000 nM): 22.3%
- normalised viability ([22]; 10000 nM): 43.5%
- normalised viability ([23]; 100 nM): 84.7%
- normalised viability ([24]; 10000 nM): 47.6%
- normalised viability ([25]; 10000 nM): 69.3%
- normalised viability ([26]; 100 nM): 110%
- normalised viability ([27]; 10000 nM): 41.3%
- normalised viability ([28]; 10000 nM): 44.1%
- normalised viability ([29]; 100 nM): 87.8%
- normalised viability ([30]; 1 nM): 93%
- normalised viability ([31]; 1 nM): 107%
- normalised viability ([32]; 1 nM): 89.9%

SMILES: CC(C)(C#N)c1cc(Cn2cncn2)cc(C(C)(C)C#N)c1 [Anastrozole]
- normalised viability ([1]; 10000 nM): 112%
- normalised viability ([2]; 10000 nM): 104%
- normalised viability ([3]; 10000 nM): 94.2%
- normalised viability ([4]; 10000 nM): 98.6%
- normalised viability ([5]; 10000 nM): 93.9%
- normalised viability ([6]; 300 nM): 83.5%
- normalised viability ([7]; 300 nM): 84.1%
- normalised viability ([8]; 300 nM): 102%
- normalised viability ([9]; 300 nM): 96.1%
- normalised viability ([10]; 300 nM): 78%
- normalised viability ([11]; 300 nM): 93.2%
- normalised viability ([12]; 10000 nM): 90.2%
- normalised viability ([13]; 100 nM): 98.7%
- normalised viability ([14]; 10000 nM): 90.9%
- normalised viability ([15]; 100 nM): 94.1%
- normalised viability ([16]; 10000 nM): 85.1%
- normalised viability ([17]; 10000 nM): 102%
- normalised viability ([18]; 10000 nM): 104%
- normalised viability ([19]; 10000 nM): 90.5%
- normalised viability ([20]; 100 nM): 111%
- normalised viability ([21]; 10000 nM): 106%
- normalised viability ([22]; 10000 nM): 80.5%
- normalised viability ([23]; 100 nM): 98.1%
- normalised viability ([24]; 10000 nM): 107%
- normalised viability ([25]; 10000 nM): 122%
- normalised viability ([26]; 100 nM): 91.8%
- normalised viability ([27]; 10000 nM): 95.2%
- normalised viability ([28]; 10000 nM): 97.1%
- normalised viability ([29]; 100 nM): 91.8%
- normalised viability ([30]; 1 nM): 98.8%
- normalised viability ([31]; 1 nM): 108%
- normalised viability ([32]; 1 nM): 99%

SMILES: O=C(O)CCCc1ccc(N(CCCl)CCCl)cc1 [Chlorambucil]
- normalised viability ([1]; 10000 nM): 90.9%
- normalised viability ([2]; 10000 nM): 96.5%
- normalised viability ([3]; 10000 nM): 89.7%
- normalised viability ([4]; 10000 nM): 115%
- normalised viability ([5]; 10000 nM): 98%
- normalised viability ([6]; 300 nM): 90.9%
- normalised viability ([7]; 300 nM): 103%
- normalised viability ([8]; 300 nM): 104%
- normalised viability ([9]; 300 nM): 110%
- normalised viability ([10]; 300 nM): 85.8%
- normalised viability ([11]; 300 nM): 105%
- normalised viability ([12]; 10000 nM): 91%
- normalised viability ([13]; 100 nM): 112%
- normalised viability ([14]; 10000 nM): 52.8%
- normalised viability ([15]; 100 nM): 114%
- normalised viability ([16]; 10000 nM): 74.7%
- normalised viability ([17]; 10000 nM): 80.4%
- normalised viability ([18]; 10000 nM): 92.5%
- normalised viability ([19]; 10000 nM): 85.8%
- normalised viability ([20]; 100 nM): 107%
- normalised viability ([21]; 10000 nM): 88.4%
- normalised viability ([22]; 10000 nM): 96%
- normalised viability ([23]; 100 nM): 103%
- normalised viability ([24]; 10000 nM): 87.5%
- normalised viability ([25]; 10000 nM): 118%
- normalised viability ([26]; 100 nM): 111%
- normalised viability ([27]; 10000 nM): 81.2%
- normalised viability ([28]; 10000 nM): 83.3%
- normalised viability ([29]; 100 nM): 98.6%
- normalised viability ([30]; 1 nM): 94.3%
- normalised viability ([31]; 1 nM): 111%
- normalised viability ([32]; 1 nM): 113%
